# Assay results taken from patent US9023809B2, “Phenylalanine dipeptide derivatives, compositions and use thereof” (The Key Laboratory of Chemistry For Natural Products of …, priority 2008, dated 2015).
# Read-outs that look alike come from different tables or passages of the source. Marks after values point to notes of the source that are not given here. Where a SMILES comes first, the peptide text is derived from it. [ ]: non-standard residue; d: D form. The star is where a group is joined. Phe(4-NO2) = N[C@@H](Cc1ccc([N+](=O)[O-])cc1)C(=O)O; 4Abz = Nc1ccc(C(=O)O)cc1; Propionyl = CCC(=O)*
# Assays:
# [1] = tested on: 2.2.15 cells; experiment: Cytotoxicity (TC50, median toxic concentration) in 2.2.15 cells; type: cell-based
# Method: (§1) Cell control wells were simultaneously set up. […] IC50 and SI were calculated, respectively.
# [2] = tested on: HBsAg; experiment: In vitro anti-HBV: inhibition of HBsAg secretion in 2.2.15 cell supernatant (RIA); type: cell-based, hepatitis B virus; details: for IC50: Hepatitis B virus, 192 h, read-out: Inhibition of HBsAg IC50
# Method: Test Principle: • 2.2.15 cells were used as a vector of hepatitis B virus. Samples were assayed for their abilities to inhibit […] to carry out DNA replication and to produce HBsAg and HBeAg.
# Test Materials and Method: • a. cell line: 2.2.15 cells; • b. treatment of samples: A sample was dissolved in DMSO in a suitable concentration right before use. The resulting solution was diluted in triple folds with culture media. There are eight dilutions. • c. positive control: Lamivudine (3TC) produced by Glaxo Wellcome; • d. reagents: radioimmunological kits of e antigen and s antigen of hepatitis B virus, α^32PdCTP; • e. test method: 2.2.15 cells were seeded in a 96-well microplate. After 36 hours, samples and positive controls in the above dilutions were added into the wells. Cell control wells were simultaneously set up. Culture media were replaced with fresh culture media containing samples in different dilutions, respectively, after 96 hours of addition of samples and positive controls. At the eighth day of addition of samples and positive controls, cell supernatants and 2.2.15 cells were harvested, respectively. Secretory volumes of HBsAg and HBeAg in the cell supernatants were assayed with the RIA method. The degree of HBV DNA replication in the cells was assayed with dot blot method. IC50 and SI were calculated, respectively.
# [3] = tested on: HBV DNA replication; experiment: In vitro anti-HBV: inhibition of HBV DNA replication in 2.2.15 cells (dot blot); type: cell-based, hepatitis B virus; details: day 8, dot blot; for IC50: Hepatitis B virus, 192 h
# Method: as §1
# [4] = tested on: DHBV-DNA; experiment: In vivo inhibition of DHBV-DNA in DHBV-infected ducklings; details: intraperitoneal daily
# Excerpt: Test compounds: the compound prepared in Example 75
# Test method: One-day-old ducklings were infected with serum containing DHBV positive virus (about 10^8-9 virions/ml). After a week, blood was collected and tested. The successfully transfected ducklings were randomly divided into three to five groups. Blank group, positive control group and treatment group(s) (one to three groups) were subjected to treatment tests. The treatment groups were divided into high, median and low dose groups. Intraperitoneal injection was carried out daily for ten days. Physiological saline was used to replace drugs in the blank group. Lamivudine was administered in the positive control group. […] Serum was separated and kept at −70° C. for tests. Duck hepatitis B virus surface antigen (DHBsAg) was assayed with DHBsAg dot molecular hybridization (DOT EIA). Duck hepatitis B virus deoxyribonucleic acid (DHBV DNA) contents in serum and duck livers were assayed with dot blot hybridization.
# [5] = tested on: HBeAg; details: 2.2.15 cells, day 8, RIA
# Method: Test Principle: • 2.2.15 cells were used as a vector of hepatitis B virus. Samples were assayed for their abilities to inhibit NBV to carry out DNA replication and to produce HBsAg and HBeAg.
# Test Materials and Method: • a. cell line: 2.2.15 cells; • b. treatment of samples: A sample was dissolved in DMSO in a suitable concentration right before use. The resulting solution was diluted in triple folds with culture media. […] After 36 hours, samples and positive controls in the above dilutions were added into the wells. Cell control wells were simultaneously set up. Culture media were replaced with fresh culture media containing samples in different dilutions, respectively, after 96 hours of addition of samples and positive controls. At the eighth day of addition of samples and positive controls, cell supernatants and 2.2.15 cells were harvested, respectively. Secretory volumes of HBsAg and HBeAg in the cell supernatants were assayed with the RIA method. The degree of HBV DNA replication in the cells was assayed with dot blot method. IC50 and SI were calculated, respectively.
# [6] = 12.5 mg/kg, 3rd Day of Withdrawal
# [7] = 25.0 mg/kg, 3rd Day of Withdrawal
# [8] = 50.0 mg/kg, 3rd Day of Withdrawal
compound,measurement,setting,value
"CN(C)CCOc1ccc(C[C@H](NC(=O)c2ccccc2)C(=O)N[C@H](CO)Cc2ccccc2)cc1.Cl [Example 75, N-[N-berizoyl-O-(2-dimethylamino-ethyl)-L-tyrosyl]-L-phenylalaninol hydrochloride]",TC50,[1],388.03 µg/mL
same,Inhibition of HBsAg IC50,"[2]; 2.2.15 cells, day 8, RIA",33.51 µg/mL
same,Inhibition of DNA Replication IC50,[3],2.41 µg/mL
same,Inhibition Ratio,[4]; [6],9.23
same,OD Value,[4]; [6],1.09
same,Inhibition Ratio,"[4]; 12.5 mg/kg, 5th Day of Test",12.87
same,OD Value,"[4]; 12.5 mg/kg, 5th Day of Test",1.11
same,Inhibition Ratio,"[4]; 12.5 mg/kg, 10th Day of Test",12.92^a
same,OD Value,"[4]; 12.5 mg/kg, 10th Day of Test",1.11^a
same,Inhibition Ratio,[4]; [7],38.12^d
same,OD Value,[4]; [7],0.87^b
same,Inhibition Ratio,"[4]; 25.0 mg/kg, 5th Day of Test",18.67^c
same,OD Value,"[4]; 25.0 mg/kg, 5th Day of Test",1.15^a
same,Inhibition Ratio,"[4]; 25.0 mg/kg, 10th Day of Test",32.91^d
same,OD Value,"[4]; 25.0 mg/kg, 10th Day of Test",0.95^b
same,Inhibition Ratio,[4]; [8],42.30^d
same,OD Value,[4]; [8],0.83^b
same,Inhibition Ratio,"[4]; 50.0 mg/kg, 5th Day of Test",36.43^c
same,OD Value,"[4]; 50.0 mg/kg, 5th Day of Test",0.94^a
same,Inhibition Ratio,"[4]; 50.0 mg/kg, 10th Day of Test",54.62^d
same,OD Value,"[4]; 50.0 mg/kg, 10th Day of Test",0.73^b
same,Inhibition of HBeAg IC50,[5],13.51 µg/mL
"Nc1ccn([C@@H]2CS[C@H](CO)O2)c(=O)n1 [Example 3TC, Lamivudine, reference compound]",TC50,[1],786.00 µg/mL
same,IC50,[3],18.9 µg/mL
same,Inhibition Ratio,[4]; [8],0.3
same,OD Value,[4]; [8],1.54
same,Inhibition Ratio,"[4]; 50.0 mg/kg, 5th Day of Test",53.71^d
same,OD Value,"[4]; 50.0 mg/kg, 5th Day of Test",0.73^b
same,Inhibition Ratio,"[4]; 50.0 mg/kg, 10th Day of Test",57.22^d
same,OD Value,"[4]; 50.0 mg/kg, 10th Day of Test",0.68^b
"CCC(=O)Nc1ccc(C(=O)N[C@@H](Cc2ccccc2)C(=O)N[C@@H](Cc2ccc([N+](=O)[O-])cc2)C(=O)OC)cc1 [Example 38, methyl N-[N-(4-propionamido-benzoyl)-L-phenylalanyl]-4-nitro-L-phenylalaninate] ({Propionyl-4Abz}-Phe-[Phe(4-NO2)]-OMe)",TC50,[1],80.13 µg/mL
same,IC50,[3],2.39 µg/mL
same,melting point,,221 to 223 °C
"O=C(N[C@@H](Cc1ccccc1)C(=O)N[C@H](CO)Cc1ccccc1)c1ccc(CN2CCCC2)cc1 [Example 50, N-{N-[4-(1-pyrrolidyl)methyl-benzoyl]-L-phenylalanyl}-L-phenylalaninol]",TC50,[1],64.15 µg/mL
same,IC50,[3],7.04 µg/mL
same,melting point,,164 to 165 °C
"O=C(N[C@@H](Cc1ccc(O)cc1)C(=O)N[C@H](CO)Cc1ccccc1)c1ccccc1Cl [Example 22, N-(N-2-chloro-benzoyl-L-tyrosyl)-L-phenylalaninol]",TC50,[1],346.68 µg/mL
same,IC50,[3],106 µg/mL
same,melting point,,168 to 169 °C
"COC(=O)[C@H](Cc1ccccc1)NC(=O)[C@H](Cc1ccc(O)cc1)NC(=O)c1ccccc1Cl [Example 23, methyl N-(N-2-chloro-benzoyl-L-tyrosyl)-L-phenylalaninate]",TC50,[1],240.38 µg/mL
same,IC50,[3],52 µg/mL
same,melting point,,175.5 to 177.5 °C
"O=C(N[C@@H](Cc1ccccc1)C(=O)N[C@H](CO)Cc1ccccc1)c1ccc(Cl)cc1 [Example 07, N-(N-4-chloro-benzoyl-L-phenylalanyl)-L-phenylalaninol]",TC50,[1],28.74 µg/mL
same,IC50,[3],1.02 µg/mL
same,melting point,,211.5 to 214 °C
"O=C(N[C@@H](Cc1ccc(OCO)cc1)C(=O)N[C@H](CO)Cc1ccccc1)c1ccccc1.[Na] [Example 80, N-[N-benzoyl-O-hydroxymethyl-L-tyrosyl]-L-phenylalaninol sodium salt]",TC50,[1],388.03 µg/mL
same,IC50,[2],150 µg/mL
same,IC50,[3],27.3 µg/mL
"CCCCOc1ccc(C[C@H](NC(=O)[C@H](Cc2ccccc2)NC(=O)c2ccccc2)C(=O)OC)cc1 [Example 72, methyl N-(N-benzoyl-L-phenylalanyl)-O-n-butyl-L-tyrosinate]",TC50,[1],577.35 µg/mL
same,IC50,[3],87.5 µg/mL
same,melting point,,177 to 178 °C
"CCCCOc1ccc(C[C@H](NC(=O)[C@H](Cc2ccccc2)NC(=O)c2ccccc2)C(=O)[O-])cc1.[Na+] [Example 74, N-(N-benzoyl-L-phenylalanyl)-O-n-butyl-L-tyrosine sodium salt]",TC50,[1],>500 µg/mL
same,IC50,"[2]; 2.2.15 cells, day 8, RIA",25.2 µg/mL
same,IC50,[3],33 µg/mL
